Experimental data from patent publication US20210283091A1, “DECREASING IMMUNE ACTIVITY THROUGH MODULATION OF POSTCELLULAR SIGNALING FACTORS” (FLAGSHIP PIONEERING INNOVATIONS V, INC., priority 2018, published 2021).
“Also recorded” adds a separate entry of the source.

Assays:
[1] = system: Caki-1 renal cell carcinoma cells; experiment: Viability of Caki-1 renal cell carcinoma cells treated with ferroptosis inducer, with or without Ferrostatin-1; assay type: cell-based; settings: various doses, 24 hours treatment
NFKB [2] = experiment: NFKB reporter activity in THP1-Dual monocytes co-cultured with treated Caki-1 cells; assay type: cell-based, human; settings: Caki-1 cells treated 24 hours, then co-culture with THP1-Dual cells 24 hours
Protocol: Caki-1 renal cell carcinoma cells were treated with either control (DMSO) or various doses of Erastin, for 24 hours prior to co-culture with THP1-Dual cells for an additional 24 hours. Erastin was purchased from Selleckchem (Houston, Tex.) and dissolved in DMSO. Subsequently, the THP1 supernatants were assessed for NFKB or IRF reporter activity. Caki-1 cells were acquired from ATCC and THP1-Dual cells acquired from InvivoGen (San Diego, Calif.). Both cell types were cultured in 96-well plates for the duration of the assay. 7.500 Caki-1 cells were plated 24 hours prior to dosing with Erastin, with a final DMSO concentration of 0.5%. 24 hours post-treatment, THP1-Dual cells (25,000 cells/well) were added to the Caki-1 cells. 24 hours later, 30 μl of supernatant was mixed with either 200 μl QuantiBlue (InvivoGen) or 50 μl QuantiLuc and absorbance or luminescence was recorded on a Molecular Devices plate reader. Caki-1 renal cell carcinoma cells were treated with either control (DMSO) or various doses of RSL3, for 24 hours prior to co-culture with THP1-Dual cells for an additional 24 hours. RSL3 was purchased from Selleckchem and dissolved in DMSO. Subsequently, the THP1 supernatants were assessed for NFKB or IRF reporter activity. Caki-1 cells were acquired from ATCC and THP1-Dual cells acquired from InvivoGen (San Diego, Calif.). Both cell types were cultured in 96-well plates for the duration of the assay. 7.500 Caki-1 cells were plated 24 hours prior to dosing with […], with a final DMSO concentration of 0.5%. 24 hours post-treatment, THP1-Dual cells (25,000 cells/well) were added to the Caki-1 cells. 24 hours later, 30 μl of supernatant was mixed with either 200 μl QuantiBlue (InvivoGen, San Diego, Calif.) or 50 μl QuantiFuc and absorbance or luminescence was recorded on a Molecular Devices plate reader. […] Subsequently, the THP1 supernatant was assessed for NFKB reporter activity. […]

[3] = system: Jurkat T cell leukemia cells; experiment: Viability of Jurkat T cell leukemia cells treated with RSL3; assay type: cell-based; settings: various doses, 24 hours treatment
NFKB [4] = experiment: NFKB reporter activity in THP1-Dual monocytes co-cultured with treated Jurkat cells; assay type: cell-based, human; settings: Jurkat cells treated 24 hours, then co-culture with THP1-Dual cells 24 hours
Protocol: (§1) Jurkat T cell leukemia cells were treated with either control (DMSO) or various doses of RSL3, for 24 hours prior to co-culture with THP1-Dual cells for an additional 24 hours. RSL3 was purchased from Selleckchem (Houston, Tex.) and dissolved in DMSO. Subsequently, the THP1 supernatants were assessed for NFKB or IRF reporter activity. Jurkat cells were acquired from ATCC and THP1-Dual cells acquired from InvivoGen (San Diego, Calif.). Both cell types were cultured in 96-well plates for the duration of the assay. 100,000 Jurkat cells were plated 24 hours prior to dosing with RSL3, with a final DMSO concentration of 0.5%. 24 hours post-treatment, THP1-Dual cells (25,000 cells/well) were added to the Jurkat cells. 24 hours later, 30 μl of supernatant was mixed with either 200 μl QuantiBlue (InvivoGen, San Diego, Calif.) or 50 μl QuantiLuc and absorbance or luminescence was recorded on a Molecular Devices plate reader.

[5] = system: A20 B-cell leukemia cells; experiment: Viability of A20 cells treated with GPX4 inhibitor, with or without Ferrostatin-1; assay type: cell-based; settings: various doses, 24 hours treatment
NFKB [6] = experiment: NFKB reporter activity in THP1-Dual monocytes co-cultured with treated A20 cells; assay type: cell-based, human; settings: A20 cells treated 24 hours, then co-culture with THP1-Dual cells 24 hours
Protocol: A20 B-cell leukemia cells were treated with either control (DMSO) or various doses of RSL3, for 24 hours prior to co-culture with THP1-Dual cells for an additional 24 hours. RSL3 was purchased from Selleckchem (Houston, Tex.) and dissolved in DMSO. Subsequently, the THP1 supernatants were assessed for NFKB or IRF reporter activity.
A20 cells were acquired from ATCC and THP1-Dual cells acquired from InvivoGen (San Diego, Calif.). Both cell types were cultured in 96-well plates for the duration of the assay. 50,000 A20 cells were plated 24 hours prior to dosing with RSL3, with a final DMSO concentration of 0.5%. 24 hours post-treatment, THP1-Dual cells (25,000 cells/well) were added to the A20 cells. 24 hours later, 30 μl of supernatant was mixed with either 200 μl QuantiBlue (InvivoGen, San Diego, Calif.) or 50 μl QuantiLuc and absorbance or luminescence was recorded on a Molecular Devices plate reader.
A20 lymphoma cells were treated with various doses (e.g. 0.002, 0.005, 0.014, 0.041, 0.123, 0.370, 1.111, 3.333 and 10 μM) of a GPX4 inhibitor (RSL3, ML162 or ML210) in the presence or absence of 1 μM Ferrostatin-1 for 24 hours. ML162 was purchased from Cayman Chemical Company Inc and resuspended in DMSO. ML210 was purchased from Sigma-Aldrich and resuspended in DMSO. A20 lymphoma cells were also treated with DMSO as a negative control. After treatment with DMSO or a GPX4 inhibitor for 24 hours, the A20 lymphoma cells were co-cultured with THP1-Dual cells for an additional 24 hours. Subsequently, the THP1 supernatant was assessed for NFKB reporter activity. A20 cells were acquired from ATCC and THP1-Dual cells were acquired from InvivoGen (San Diego, Calif.). Both cell types were cultured in 96-well plates for the duration of the assay.

IRF = IRF reporter activity in THP1-Dual monocytes co-cultured with treated A20 cells; assay type: cell-based, human; settings: A20 cells treated 24 hours, then co-culture with THP1-Dual cells 24 hours
Protocol: as §1, with “A20 B-cell” for “Jurkat T cell”, “A20” for “Jurkat”, “50,000 A20” for “100,000 Jurkat”

COC(=O)c1ccc([C@H]2c3[nH]c4ccccc4c3C[C@H](C(=O)OC)N2C(=O)CCl)cc1 [RSL3]
viability of Caki-1 cells [1]: negatively affected the viability; also recorded: decreased viability of the cells in a dose dependent manner
NFKB signaling in THP1 monocytes (NFKB [2]): elicited NFKB signaling; also recorded: increased NFKB activity in THP1 cells in a dose dependent manner
viability of Jurkat T cell leukemia cells [3]: negatively affected the viability
NFKB signaling in THP1 monocytes (NFKB [4]): elicited NFKB signaling
viability of A20 cells [5]: negatively affected the viability; also recorded: decreased viability of the cells in a dose dependent manner
NFKB signaling in THP1 monocytes (NFKB [6]): elicited NFKB; also recorded: increased NFKB activity in THP1 cells in a dose dependent manner
IRF signaling in THP1 monocytes (IRF): elicited
